Literature values in US20210069098A1, “RIBAVIRIN […] COMPOSITION FOR TREATING VIRAL DISEASES” (MT RESEARCH, LLC, priority 2009, published 2021).
Like-named read-outs stand apart in the source and are kept apart here.

What was measured:
[1] = test system: Influenza
[2] = nebulized neat perflubron
[3] = PLV

## CC(=O)N[C@@H](CS)C(=O)O [N-acetylcysteine (NAC), N-acetylcysteine]
[1]; in vivo
  survival: improve survival

## superoxide dismutase [superoxide dismutase (SOD)]
[1]; […]
  survival: improve survival

## FC(F)(F)C(F)(F)C(F)(F)C(F)(F)C(F)(F)C(F)(F)C(F)(F)C(F)(F)Br [perflubron]
[2]
  gas exchange: efficacy for gas exchange
[3]; low dose 10 mL/kg or high dose 20 mL/kg
  reduction in ventilator days or mortality: failed to demonstrate a reduction in ventilator days or mortality
[3]; low dose or high dose, hypotension, hypoxemia and pneumothorax
  complications: more complications
